Experimental findings from patent US20200405868A1, “GEL-FORMING POLYPEPTIDES” (priority 2018, published 2020) are described below.

This series is described as follows: Compound gel-forming ability in water (visual inspection, tube tapping assay, tilted tube assay).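 On all read-outs here: peptides mixed with de-ionized water at about 22-25 °C, judged after 20 min by eye plus tube tapping (10 taps, moves counted) and 90° tilt mobility.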 The series is classed as physicochemical. The following applies: for gel formation at 6% w/w: 6% w/w in water; for gel formation at 11% w/w: 11% w/w in water; for gel formation in aqueous solution, 11% / gel formation in aqueous solution, 6% / gel formation in aqueous solution, 20% / gel formation in aqueous solution, 3%: Table 3; for gel formation in aqueous solution, 11% / propensity to form gels, chimeric or mutated polypeptides, 11% / propensity to form gels, wild-type counterparts, 11%: 11% w/w; for propensity to form gels, chimeric or mutated polypeptides, 11% / propensity to form gels, wild-type counterparts, 6% / propensity to form gels, wild-type counterparts, 11% / propensity to form gels, chimeric or mutated polypeptides, 6% / propensity to form gels, chimeric or mutated polypeptides, 20% / propensity to form gels, chimeric or mutated polypeptides, 3%: Table 5; for Physical property at 11% w/w: 11% w/w in aqueous solution, room temperature; for gel formation in aqueous solution, 6% / propensity to form gels, wild-type counterparts, 6% / propensity to form gels, chimeric or mutated polypeptides, 6%: 6% w/w; for gel formation in aqueous solution, 20% / propensity to form gels, chimeric or mutated polypeptides, 20%: 20% w/w; for gel formation at 3% w/w: 3% w/w in water; for gel formation in aqueous solution, 3% / propensity to form gels, chimeric or mutated polypeptides, 3%: 3% w/w.

“Pal-SSPHSY-miniPEG-PFRSVQ-NH2 [SEQ ID NO:242]”: the “gel formation at 6% w/w” value is on record as “liquid gel”; the “gel formation at 11% w/w” value is given as “semisolid gel”; the “gel formation in aqueous solution, 11%” value was “SS (SS for semisolid gel)”; the “propensity to form gels, chimeric or mutated polypeptides, 11%” value was “SS (An ability to form semisolid gel is represented by an SS)”.

Turning to “Y-(D-Ala)-GF(D-Leu)-NH2 [SEQ ID NO:22, reference compound]”, the “gel formation at 6% w/w” value is listed as “do not form gels”; the “gel formation at 11% w/w” value was “do not form gels”; the “gel formation in aqueous solution, 6%” value is listed as “AS/IS (AS/IS for aqueous solution or insoluble)”; the “gel formation in aqueous solution, 11%” value is on record as “AS/IS (AS/IS for aqueous solution or insoluble)”. For the same molecule, the “propensity to form gels, wild-type counterparts, 6%” value was “AS/IS” and the “propensity to form gels, wild-type counterparts, 11%” value was “AS/IS”. The “Physical property at 11% w/w” value (Table 1) is “AS/IS”.

For the molecule Pal-HSYEEMQRR-NH2 [SEQ ID NO:250], the “gel formation at 11% w/w” value is listed as “semisolid gel”; the “gel formation in aqueous solution, 6%” value is recorded as “AS/IS (AS/IS for aqueous solution or insoluble)”; the “gel formation in aqueous solution, 11%” value is given as “SS (SS for semisolid gel)”; the “propensity to form gels, chimeric or mutated polypeptides, 6%” value is “AS/IS”. In addition, the “propensity to form gels, chimeric or mutated polypeptides, 11%” value is listed as “SS (An ability to form semisolid gel is represented by an SS)”.

“Ace-TVQKLAHQIYQFTDKDKDNVAPRSKISPQGY-NH2 [SEQ ID NO:101]”: where the note is “Table 2”, the “Physical property at 11% w/w” value is “AS/IS (AS/IS for aqueous solution or insoluble)”.

For “Pal-HSY-Nle-cyclo[Asp-His-D-Phe-Arg-Trp-Lys]-NH2 [SEQ ID NO:257]”, the “gel formation in aqueous solution, 11%” value is on record as “SS (SS for semisolid gel)”; the “gel formation in aqueous solution, 20%” value is given as “SS (SS for semisolid gel)”; the “propensity to form gels, chimeric or mutated polypeptides, 11%” value is given as “SS (An ability to form semisolid gel is represented by an SS)”; the “propensity to form gels, chimeric or mutated polypeptides, 20%” value (“propensity to form gels … 20%” for short) is given as “SS (An ability to form semisolid gel is represented by an SS)”.

For the molecule “PGTCEICAYAACTGC [SEQ ID NO:40, reference compound]”, the “Physical property at 11% w/w” value (Table 1) is on record as “AS/IS”.

Turning to “Pal-HSYAAVDTSSEITTKDLKEKKEVVEEAEN-NH2 [SEQ ID NO:240]”, the “gel formation at 11% w/w” value is “semisolid gel”; the “gel formation in aqueous solution, 6%” value was “AS/IS (AS/IS for aqueous solution or insoluble)”; the “gel formation in aqueous solution, 11%” value is reported as “SS (SS for semisolid gel)”; the “propensity to form gels, chimeric or mutated polypeptides, 6%” value is reported as “AS/IS”. Besides, the “propensity to form gels, chimeric or mutated polypeptides, 11%” value is recorded as “SS (An ability to form semisolid gel is represented by an SS)”.

As to “Pal-KVQNLSAPVDPSSPHSY-NH2 [SEQ ID NO:104]”, where the note is “Table 2”, the “Physical property at 11% w/w” value was “AS/IS (AS/IS for aqueous solution or insoluble)”.

Turning to “Pal-SSPHSY-miniPEG-SYSMEHFRWGKPVGKKRRPVKVYP-OH [SEQ ID NO:225]”, the “gel formation in aqueous solution, 11%” value is “AS/IS (AS/IS for aqueous solution or insoluble)” and the “gel formation in aqueous solution, 20%” value is recorded as “SS (SS for semisolid gel)”.

Regarding “(Myristic acid)-SSPHSY-NH2 [SEQ ID NO:123]”, the “Physical property at 11% w/w” value (Table 2) is listed as “SS (SS for semisolid gel)”.

As for “Pal-KVQKLAHQSAPVDPSSPHSY-NH2 [SEQ ID NO:105]”, under “Table 2”, the “Physical property at 11% w/w” value is “AS/IS (AS/IS for aqueous solution or insoluble)”.

Turning to “Pal-KVQKLSAPVDPSSPHSY-miniPEG-CYFQNCPRG-NH2 [SEQ ID NO:204]”, the “gel formation at 6% w/w” value is reported as “semisolid gel”; the “gel formation at 11% w/w” value was “semisolid gel”; the “gel formation in aqueous solution, 6%” value was “SS (SS for semisolid gel)”; the “gel formation in aqueous solution, 11%” value was “SS (SS for semisolid gel)”. In addition, the “propensity to form gels, chimeric or mutated polypeptides, 6%” value is reported as “SS (An ability to form semisolid gel is represented by an SS)” and the “propensity to form gels, chimeric or mutated polypeptides, 11%” value is listed as “SS (An ability to form semisolid gel is represented by an SS)”.

Consider `CC[C@H](C)[C@H](NC(=O)[C@@H]1CCCN1C(=O)CNC(=O)[C@H](Cc1ccccc1)NC(=O)[C@H](CC(N)=O)NC(=O)[C@H](CC(N)=O)NC(=O)[C@H](CO)NC(=O)[C@H](CO)NC(=O)[C@H](Cc1c[nH]cn1)NC(=O)[C@@H](NC(=O)[C@H](CC(C)C)NC(=O)[C@H](Cc1ccccc1)NC(=O)[C@H](CC(N)=O)NC(=O)[C@H](C)NC(=O)[C@H](CC(C)C)NC(=O)[C@H](CCCNC(=N)N)NC(=O)[C@H](CCC(N)=O)NC(=O)[C@@H](NC(=O)[C@H](C)NC(=O)[C@@H]1CSSC[C@H](NC(=O)[C@@H](N)CCCCN)C(=O)N[C@@H](CC(N)=O)C(=O)N[C@@H]([C@@H](C)O)C(=O)N[C@@H](C)C(=O)N[C@@H]([C@@H](C)O)C(=O)N1)[C@@H](C)O)C(C)C)C(=O)N[C@@H](CC(C)C)C(=O)N1CCC[C@H]1C(=O)N1CCC[C@H]1C(=O)N[C@H](C(=O)N[C@@H](CC(N)=O)C(=O)N[C@H](C(=O)NCC(=O)N[C@@H](CO)C(=O)N[C@@H](CC(N)=O)C(=O)N[C@H](C(=O)N[C@@H](Cc1ccc(O)cc1)C(N)=O)[C@@H](C)O)C(C)C)[C@@H](C)O` [SEQ ID NO:4, reference compound], for which the “gel formation at 6% w/w” value is “does not form gel”; the “gel formation at 11% w/w” value was “semisolid gel”; the “gel formation in aqueous solution, 11%” value is on record as “AS/IS (AS/IS for aqueous solution or insoluble)”; the “gel formation in aqueous solution, 20%” value is recorded as “SS (SS for semisolid gel)”. Also, the “propensity to form gels, wild-type counterparts, 6%” value is on record as “AS/IS” and the “propensity to form gels, wild-type counterparts, 11%” value is listed as “SS (An ability to form semisolid gel is represented by an SS)”. The “Physical property at 11% w/w” value (Table 1) is given as “SS (SS for semisolid gel)”.

For Pal-HSYVMGHFRWDRF-NH2 [SEQ ID NO:260], the “gel formation at 6% w/w” value was “liquid gel”.

Turning to “VGVAPG-NH2 [SEQ ID NO:45, reference compound]”, the “gel formation in aqueous solution, 6%” value is recorded as “AS/IS (AS/IS for aqueous solution or insoluble)”; the “gel formation in aqueous solution, 11%” value is recorded as “AS/IS (AS/IS for aqueous solution or insoluble)”; the “propensity to form gels, wild-type counterparts, 6%” value is “AS/IS”; the “propensity to form gels, wild-type counterparts, 11%” value was “AS/IS”. For the same molecule, the “Physical property at 11% w/w” value (Table 1) is listed as “AS/IS”.

With “HAEGTFTSDVSSYLEGQAAK(YSHPSS-Pal)EFIAWLVRGRG [SEQ ID NO:269]”, the “gel formation in aqueous solution, 11%” value is given as “SS (SS for semisolid gel)”; the “gel formation in aqueous solution, 20%” value is reported as “SS (SS for semisolid gel)”; the “propensity to form gels, chimeric or mutated polypeptides, 11%” value is reported as “SS (An ability to form semisolid gel is represented by an SS)”; the “propensity to form gels … 20%” value is “SS (An ability to form semisolid gel is represented by an SS)”.

On to “YRQSMNNFQGLRSFGCRFGTCTVQKLAHQIYQFTDKDKDNVAPRSKISPQGY-NH2 [SEQ ID NO:2, reference compound]”, for which the “gel formation in aqueous solution, 6%” value is “AS/IS (AS/IS for aqueous solution or insoluble)” and the “gel formation in aqueous solution, 11%” value is listed as “SS (SS for semisolid gel)”. For the setting “Table 1”, the “Physical property at 11% w/w” value is reported as “SS (SS for semisolid gel)”.

In the case of “HSDAVFTDNYTRLRKQ-Nle-AVKKYLNSILN-(Pal-K)-SY-NH2 [SEQ ID NO:266]”, the “gel formation at 11% w/w” value is recorded as “semisolid gel”; the “gel formation in aqueous solution, 11%” value is on record as “SS (SS for semisolid gel)”; the “propensity to form gels, chimeric or mutated polypeptides, 11%” value was “SS (An ability to form semisolid gel is represented by an SS)”.

For the molecule “Pal-KVQKLSAPVDPSSPHSY-miniPEG-HAEGTFTSDVSSYLEGQAAKEFIAWLVKGR-NH2 [SEQ ID NO:220]”, the “gel formation in aqueous solution, 11%” value was “SS (SS for semisolid gel)” and the “propensity to form gels, chimeric or mutated polypeptides, 11%” value is listed as “SS (An ability to form semisolid gel is represented by an SS)”.

Consider “Pal-SSPHSY-miniPEG-(D-Ala)-(D-(β-naphthyl))-AAW-(D-Phe)-Lys-NH2 [SEQ ID NO:235]”, for which the “gel formation at 3% w/w” value is reported as “semisolid gel”; the “gel formation at 6% w/w” value is “semisolid gel”; the “gel formation at 11% w/w” value is “semisolid gel”; the “gel formation in aqueous solution, 3%” value is reported as “SS (SS for semisolid gel)”. The “gel formation in aqueous solution, 6%” value is “SS (SS for semisolid gel)”; the “gel formation in aqueous solution, 11%” value was “SS (SS for semisolid gel)”; the “propensity to form gels, chimeric or mutated polypeptides, 3%” value is reported as “SS (An ability to form semisolid gel is represented by an SS)”; the “propensity to form gels, chimeric or mutated polypeptides, 6%” value is “SS (An ability to form semisolid gel is represented by an SS)”. The “propensity to form gels, chimeric or mutated polypeptides, 11%” value is “SS (An ability to form semisolid gel is represented by an SS)”.

Take “Pal-KVQKLSAPVDPSSPHSY-miniPEG-Y-(D-Ala)-GF(D-Leu)-NH2 [SEQ ID NO:212]”: the “gel formation at 3% w/w” value is given as “semisolid gels”; the “gel formation in aqueous solution, 3%” value is listed as “SS (SS for semisolid gel)”; the “propensity to form gels, chimeric or mutated polypeptides, 3%” value is “SS (An ability to form semisolid gel is represented by an SS)”.

For “HAEGTFTSDVSSYLEGQAAREFIAWLVK(YSHPSS-Pal)GRG [SEQ ID NO:270]”, the “gel formation in aqueous solution, 11%” value is recorded as “SS (SS for semisolid gel)”; the “gel formation in aqueous solution, 20%” value is “SS (SS for semisolid gel)”; the “propensity to form gels, chimeric or mutated polypeptides, 11%” value was “SS (An ability to form semisolid gel is represented by an SS)”; the “propensity to form gels … 20%” value is listed as “SS (An ability to form semisolid gel is represented by an SS)”.

As to “Pal-KVQKLAHQIYQFTD(Aib)DSAPVDPSSPHSY-NH2 [SEQ ID NO:124]”, the “Physical property at 11% w/w” value (Table 2) is “SS (SS for semisolid gel)”.

For the molecule “KRPPGFS-(Dβal)-Ile-NH2 [SEQ ID NO:65, reference compound]”, the “gel formation at 6% w/w” value is on record as “does not form a gel”; the “gel formation at 11% w/w” value is “does not form a gel”; the “gel formation in aqueous solution, 6%” value is given as “AS/IS (AS/IS for aqueous solution or insoluble)”; the “gel formation in aqueous solution, 11%” value is given as “AS/IS (AS/IS for aqueous solution or insoluble)”. For the same molecule, the “propensity to form gels, wild-type counterparts, 6%” value is “AS/IS” and the “propensity to form gels, wild-type counterparts, 11%” value is listed as “AS/IS”.
